target: T1, Recombinant human GR (Homo sapiens, UniProt P04150); assay: Evaluation test for binding activity to glucocorticoid receptor: receptor competitor assay by fluorescence polarization (Invitrogen GR competitor assay kit, cat No. P2816); details: 20 μM test compound solution, 10 μL per well plus 5 μL 4×GS1 and 5 μL 4×GR solution; room temperature 2 to 4 hours; a ratio of 100% or more is indicated by 100%
T1 construct: purchased Invitrogen P2816
T1 sequence (P04150 1-777): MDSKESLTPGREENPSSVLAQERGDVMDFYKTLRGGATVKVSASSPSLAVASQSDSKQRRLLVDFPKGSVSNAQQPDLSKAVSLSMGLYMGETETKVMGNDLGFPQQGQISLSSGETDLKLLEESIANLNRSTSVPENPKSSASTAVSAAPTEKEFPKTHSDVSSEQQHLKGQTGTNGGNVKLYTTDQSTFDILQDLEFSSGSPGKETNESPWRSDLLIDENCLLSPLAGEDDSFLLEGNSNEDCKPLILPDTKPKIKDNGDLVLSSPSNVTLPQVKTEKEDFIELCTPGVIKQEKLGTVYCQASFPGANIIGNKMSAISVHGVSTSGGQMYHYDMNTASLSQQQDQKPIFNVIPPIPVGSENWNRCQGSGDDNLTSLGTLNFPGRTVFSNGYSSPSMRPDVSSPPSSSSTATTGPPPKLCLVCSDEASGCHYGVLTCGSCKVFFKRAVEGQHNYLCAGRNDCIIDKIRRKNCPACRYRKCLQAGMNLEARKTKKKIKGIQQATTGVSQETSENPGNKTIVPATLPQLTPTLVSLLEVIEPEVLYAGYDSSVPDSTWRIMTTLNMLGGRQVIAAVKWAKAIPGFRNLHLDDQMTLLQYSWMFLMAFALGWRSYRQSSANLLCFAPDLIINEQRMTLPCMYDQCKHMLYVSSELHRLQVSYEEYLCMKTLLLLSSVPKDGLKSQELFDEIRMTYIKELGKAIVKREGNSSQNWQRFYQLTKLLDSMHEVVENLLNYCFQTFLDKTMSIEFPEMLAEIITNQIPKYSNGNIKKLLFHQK
Procedure: A detailed explanation of this matter will be described in the section of “Pharmacological Test” in Examples described below. In order to find the usefulness of the present compound as a pharmaceutical, a glucocorticoid receptor competitor assay was carried out by a fluorescence polarization method by using a glucocorticoid receptor competitor assay kit (manufactured by Invitrogen, cat No. P2816) to study the glucocorticoid receptor binding activity of the present compound.
1. Evaluation Test for Binding Activity to Glucocorticoid Receptor (hereinafter referred to as “GR”)
In order to evaluate a binding activity to GR, a receptor competitor assay was carried out by a fluorescence polarization method. In the assay, a GR competitor assay kit (manufactured by Invitrogen, cat No. P2816) was used, and a procedure was carried out according to the protocol attached to the kit. Hereinafter, the specific method will be described.
(Preparation of Reagents)
GR screening buffer: A buffer containing 10 mM potassium phosphate (pH 7.4), 20 mM sodium molybdate (Na2MoO4), 0.1 mM ethylene diamine tetraacetic acid (EDTA), 5 mM dithiothreitol (DTT), 0.1 mM stabilizing peptide and 2% dimethylsulfoxide was prepared.
4×GS1 solution: Fluormone™ GS1, which is a fluorescent glucocorticoid ligand, was diluted with GR screening buffer, whereby a 4 nM solution was prepared.
4×GR solution: Recombinant human GR was diluted with GR screening buffer, whereby a 16 nM solution was prepared.
(Preparation of Test Compound Solution)
After a test compound was dissolved in dimethylsulfoxide, the resulting solution was diluted with GR screening buffer, whereby a 20 μM test compound solution was prepared.
(Test Method and Measurement Method)
1) The test compound solution was added in an amount of 10 μL into each well of a 384-well plate, and then, 4×GS1 solution and 4×GR solution were added in an amount of 5 μL into each well, respectively.
2) The plate was incubated in a dark place at room temperature for 2 to 4 hours.
3) By using a multimode plate reader, Analyst™ HT (manufactured by LJL Biosystems), fluorescence polarization of each well was measured. As the blank, a well containing GR screening buffer in place of the test compound and 4×GS1 solution was used.
4) The same procedure as that in the above 1) to 3) was carried out except that GR screening buffer was used in place of the test compound solution, and the obtained result was taken as the negative control.
5) The same procedure as that in the above 1) to 3) was carried out except that 2 mM dexamethasone was used in place of the test compound solution, and the obtained result was taken as the positive control.
(Calculation Equation of GR Binding Ratio)
A GR binding ratio (%) was calculated from the following equation. GR binding ratio(%)=100×[1−(fluorescence polarization of test compound solution−fluorescence polarization of positive control solution)/(fluorescence polarization of negative control solution−fluorescence polarization of positive control solution)] (Test Results and Discussion)

| Structure (SMILES) | inhibition at 20 µM (stock) [%] | inhibition at 20 µM [%] |
| --- | --- | --- |
| COc1ccccc1NCc1c(-c2ccc(OC(=O)c3sccc3Cl)cc2OC)ccc2c1C(C)=CC(C)(C)N2 [Compound 1-28, 6-[4-(3-Chlorothiophen-2-ylcarbonyloxy)-2-methoxyphenyl]-5-(2-methoxyphenylaminomethyl)-2,2,4-trimethyl-1,2-dihydroquinoline] | 88 | – |
| COc1ccccc1NCc1c(-c2ccc(OC(=O)c3occc3C)cc2OC)ccc2c1C(C)=CC(C)(C)N2 [Compound 1-29, 6-[2-Methoxy-4-(3-methylfuran-2-ylcarbonyloxy)phenyl]-5-(2-methoxyphenylaminomethyl)-2,2,4-trimethyl-1,2-dihydroquinoline] | 93 | – |
| COc1ccccc1NCc1c(-c2ccc(OC(=O)c3cscn3)cc2OC)ccc2c1C(C)=CC(C)(C)N2 [Compound 1-30, 5-(2-Methoxyphenylaminomethyl)-6-[2-methoxy-4-(thiazol-4-ylcarbonyloxy)phenyl]-2,2,4-trimethyl-1,2-dihydroquinoline] | 94 | – |
| COc1ccccc1NCc1c(-c2ccc(OC(=O)c3ccc(C)nc3)cc2OC)ccc2c1C(C)=CC(C)(C)N2 [Compound 1-31, 6-[2-Methoxy-4-(6-methylpyridin-3-ylcarbonyloxy)phenyl]-5-(2-methoxyphenylaminomethyl)-2,2,4-trimethyl-1,2-dihydroquinoline] | 92 | – |
| COc1ccccc1NCc1c(-c2ccc(OC(=O)c3cccnc3OC)cc2OC)ccc2c1C(C)=CC(C)(C)N2 [Compound 1-32, 6-[2-Methoxy-4-(2-methoxypyridin-3-ylcarbonyloxy)phenyl]-5-(2-methoxyphenylaminomethyl)-2,2,4-trimethyl-1,2-dihydroquinoline] | 90 | – |
| COc1cc(OC(=O)c2ccoc2)ccc1-c1ccc2c(c1CNc1cc(F)ccc1C)C(C)=CC(C)(C)N2 [Compound 1-33, 5-(5-Fluoro-2-methylphenylaminomethyl)-6-[4-(furan-3-ylcarbonyloxy)-2-methoxyphenyl]-2,2,4-trimethyl-1,2-dihydroquinoline] | 100 | – |
| COc1cc(OC(=O)c2ccncc2)ccc1-c1ccc2c(c1CNc1cc(F)ccc1C)C(C)=CC(C)(C)N2 [Compound 1-34, 5-(5-Fluoro-2-methylphenylaminomethyl)-6-[2-methoxy-4-(pyridin-4-ylcarbonyloxy)phenyl]-2,2,4-trimethyl-1,2-dihydroquinoline] | 100 | – |
| COc1cc(OC(=O)c2ccccc2F)ccc1-c1ccc2c(c1CNc1cc(F)ccc1C)C(C)=CC(C)(C)N2 [Compound 1-35, 6-[4-(2-Fluorobenzoyloxy)-2-methoxyphenyl]-5-(5-fluoro-2-methylphenylaminomethyl)-2,2,4-trimethyl-1,2-dihydroquinoline] | 100 | – |
| COc1cc(OC(=O)c2cccnc2C)ccc1-c1ccc2c(c1CNc1cc(F)ccc1C)C(C)=CC(C)(C)N2 [Compound 1-38, 5-(5-Fluoro-2-methylphenylaminomethyl)-6-[2-methoxy-4-(2-methylpyridin-3-ylcarbonyloxy)phenyl]-2,2,4-trimethyl-1,2-dihydroquinoline] | 100 | – |
| COc1cc(OC(=O)c2ccccc2SC)ccc1-c1ccc2c(c1CNc1cc(F)ccc1C)C(C)=CC(C)(C)N2 [Compound 1-39, 5-(5-Fluoro-2-methylphenylaminomethyl)-6-[4-(2-methylthiobenzoyloxy)-2-methoxyphenyl]-2,2,4-trimethyl-1,2-dihydroquinoline] | 100 | – |
| COc1cc(OC(=O)c2cccnc2OC)ccc1-c1ccc2c(c1CNc1cc(F)ccc1C)C(C)=CC(C)(C)N2 [Compound 1-41, 5-(5-Fluoro-2-methylphenylaminomethyl)-6-[2-methoxy-4-(2-methoxypyridin-3-ylcarbonyloxy)phenyl]-2,2,4-trimethyl-1,2-dihydroquinoline] | 100 | – |
| COc1cc(OC(=O)c2occc2C)ccc1-c1ccc2c(c1CNc1cc(F)ccc1C)C(C)=CC(C)(C)N2 [Compound 1-42, 5-(5-Fluoro-2-methylphenylaminomethyl)-6-[2-methoxy-4-(3-methylfuran-2-ylcarbonyloxy)phenyl]-2,2,4-trimethyl-1,2-dihydroquinoline] | 100 | – |
| COc1ccccc1NCc1c(-c2ccc(OC(=O)N3CCOCC3)cc2OC)ccc2c1C(C)=CC(C)(C)N2 [Compound 1-44, 6-[2-Methoxy-4-(morpholin-4-ylcarbonyloxy)phenyl]-5-(2-methoxyphenylaminomethyl)-2,2,4-trimethyl-1,2-dihydroquinoline] | 96 | – |
| COc1cc(OC(=O)N2CCOCC2)ccc1-c1ccc2c(c1CNc1cc(F)ccc1C)C(C)=CC(C)(C)N2 [Compound 1-45, 5-(5-Fluoro-2-methylphenylaminomethyl)-6-[2-methoxy-4-(morpholin-4-ylcarbonyloxy)phenyl]-2,2,4-trimethyl-1,2-dihydroquinoline] | 100 | – |

Next, values leading:

| inhibition at 20 µM (stock) [%] | inhibition at 20 µM [%] | Structure (SMILES) |
| --- | --- | --- |
| – | 100 | CCCS(=O)(=O)Oc1ccc(-c2ccc3c(c2CNc2ccccc2OC)C(C)=CC(C)(C)N3)c(OC)c1 [Compound 2-1, 5-(2-Methoxyphenylaminomethyl)-6-(2-methoxy-4-propylsulfonyloxyphenyl)-2,2,4-trimethyl-1,2-dihydroquioline] |
| 100 | – | COc1ccccc1NCc1c(-c2ccc(OS(=O)(=O)C(C)C)cc2OC)ccc2c1C(C)=CC(C)(C)N2 [Compound 2-2, 6-(4-Isopropylsulfonyloxy-2-methoxyphenyl)-5-(2-methoxyphenylaminomethyl)-2,2,4-trimethyl-1,2-dihydroquioline] |
| 93 | – | COc1ccccc1NCc1c(-c2ccc(OS(C)(=O)=O)cc2OC)ccc2c1C(C)=CC(C)(C)N2 [Compound 2-5, 6-(2-Methoxy-4-methylsulfonyloxyphenyl)-5-(2-methoxyphenylaminomethyl)-2,2,4-trimethyl-1,2-dihydroquioline] |
| 100 | – | CCCS(=O)(=O)Oc1ccc(-c2ccc3c(c2CNc2cc(F)ccc2C)C(C)=CC(C)(C)N3)c(OC)c1 [Compound 2-6, 5-(5-Fluoro-2-methylphenylaminomethyl)-6-(2-methoxy-4-propylsulfonyloxyphenyl)-2,2,4-trimethyl-1,2-dihydroquioline] |
| 100 | – | COc1ccccc1NCc1c(-c2ccc(OS(=O)(=O)C3CC3)cc2OC)ccc2c1C(C)=CC(C)(C)N2 [Compound 2-7, 6-(4-Cyclopropylsulfonyloxy-2-methoxyphenyl)-5-(2-methoxyphenylaminomethyl)-2,2,4-trimethyl-1,2-dihydroquioline] |
| 100 | – | COc1ccccc1NCc1c(-c2ccc(OS(=O)(=O)C3CCCC3)cc2OC)ccc2c1C(C)=CC(C)(C)N2 [Compound 2-10, 6-(4-Cyclopentylsulfonyloxy-2-methoxyphenyl)-5-(2-methoxyphenylaminomethyl)-2,2,4-trimethyl-1,2-dihydroquioline] |
| 100 | – | COc1cc(OS(C)(=O)=O)ccc1-c1ccc2c(c1CNc1cc(F)ccc1C)C(C)=CC(C)(C)N2 [Compound 2-11, 5-(5-Fluoro-2-methylphenylaminomethyl)-6-(2-methoxy-4-methylsulfonyloxyphenyl)-2,2,4-trimethyl-1,2-dihydroquioline] |
